This is an account of results in ChEMBL document CHEMBL1142530, “Chalcogenopyrylium dyes as inhibitors/modulators of P-glycoprotein in multidrug-resistant cells” (Bioorg Med Chem, 2008).

Each structure is given as a SMILES string. pEC50, pIC50, pKi: −log10 of the molar value. The source made the active and inactive calls. The calls are words filed in the database; no cut-off is given here.

In data set [1] the target is T1, MDR1 (ABCB1, P-glycoprotein) (Homo sapiens, UniProt P08183). Kind of data set: (§1) Inhibition of MDR1 overexpressed in MDCK cells at 25 uM relative to LSN335984. The settings on record: dog, MDCK-MDR1. In kind it is cell-based.
T1 sequence (P08183 whole entry): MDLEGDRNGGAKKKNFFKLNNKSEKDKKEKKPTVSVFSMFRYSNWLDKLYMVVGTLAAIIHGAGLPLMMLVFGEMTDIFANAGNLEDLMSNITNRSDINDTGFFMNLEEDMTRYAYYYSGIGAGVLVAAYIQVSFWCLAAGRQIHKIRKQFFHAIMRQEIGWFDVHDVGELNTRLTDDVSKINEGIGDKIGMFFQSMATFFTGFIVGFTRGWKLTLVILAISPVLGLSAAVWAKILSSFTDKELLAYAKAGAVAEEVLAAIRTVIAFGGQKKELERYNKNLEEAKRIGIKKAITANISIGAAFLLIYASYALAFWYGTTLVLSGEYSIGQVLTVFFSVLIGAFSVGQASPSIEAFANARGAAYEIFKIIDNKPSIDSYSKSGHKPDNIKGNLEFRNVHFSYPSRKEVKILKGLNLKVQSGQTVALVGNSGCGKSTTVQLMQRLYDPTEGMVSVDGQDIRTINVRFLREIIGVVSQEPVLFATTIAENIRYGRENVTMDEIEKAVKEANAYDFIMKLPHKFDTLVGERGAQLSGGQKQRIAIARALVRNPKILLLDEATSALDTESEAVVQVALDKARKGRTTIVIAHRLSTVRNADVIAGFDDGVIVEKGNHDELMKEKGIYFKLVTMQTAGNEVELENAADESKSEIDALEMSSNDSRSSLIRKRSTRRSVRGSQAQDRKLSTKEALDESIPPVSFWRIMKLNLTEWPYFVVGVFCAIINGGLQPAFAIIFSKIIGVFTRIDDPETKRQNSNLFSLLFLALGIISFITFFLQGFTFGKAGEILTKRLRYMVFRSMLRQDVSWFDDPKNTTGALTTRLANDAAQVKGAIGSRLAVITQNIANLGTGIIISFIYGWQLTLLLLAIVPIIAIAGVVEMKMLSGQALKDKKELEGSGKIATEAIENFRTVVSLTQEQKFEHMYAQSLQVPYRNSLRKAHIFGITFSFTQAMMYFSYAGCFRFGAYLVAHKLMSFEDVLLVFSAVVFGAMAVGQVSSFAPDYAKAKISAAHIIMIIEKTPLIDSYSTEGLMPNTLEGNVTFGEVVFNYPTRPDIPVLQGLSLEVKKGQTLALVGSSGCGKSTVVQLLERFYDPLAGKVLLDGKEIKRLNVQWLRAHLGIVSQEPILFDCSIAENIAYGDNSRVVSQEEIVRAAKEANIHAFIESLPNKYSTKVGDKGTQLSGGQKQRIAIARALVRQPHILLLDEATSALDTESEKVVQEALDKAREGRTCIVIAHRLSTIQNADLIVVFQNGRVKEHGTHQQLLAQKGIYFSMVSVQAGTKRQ
In data set [2] the test system is MDCK-II. Kind of data set: Efflux ratio of permeability from basolateral to apical side to apical to basolateral side in MDCK2 cells over expressing MDR1 to permeability from basolateral to apical side to apical to basolateral side in MDCK2 cells over expressing MDR1 in presence of 25 uM LSN335984. In kind it is functional, Canis lupus familiaris.
Data set [3] can be described thus: Inhibition of verapamil-induced ATPase activity in lipid activated mouse P-glycoprotein mdr3 cys-less mutant assessed as ATP hydrolysis per ug of protein.
Data set [4] is filed under the species Mus musculus. The experiment in a line: Inhibition of verapamil-induced residual ATPase activity in lipid activated mouse P-glycoprotein mdr3 cys-less mutant assessed as ATP hydrolysis per ug of protein.
Data set [5] concerns MDCK-II. The experiment in a line: Apparent permeability from basolateral to apical side of MDCK2 cells over expressing MDR1 at 5 uM after 1 hr in presence of 25 uM LSN335984. In kind it is functional, cell-based. The settings on record: Canis lupus familiaris.
Data set [6] relates to MDCK-II. Kind of data set: Passive apparent permeability across MDCK2 cells over expressing MDR1 in presence of 25 uM LSN335984 after 1 hr. In kind it is functional, cell-based. The settings on record: Canis lupus familiaris.
Data set [7] deals with MDCK-II. The experiment in a line: Apparent permeability from basolateral to apical side of MDCK2 cells over expressing MDR1 after 1 hr. In kind it is functional, cell-based. The settings on record: Canis lupus familiaris.
In data set [8] the test system is MDCK-II. The experiment in a line: Apparent permeability from apical to basolateral side of MDCK2 cells over expressing MDR1 after 1 hr. In kind it is functional, cell-based. The following applies: Canis lupus familiaris.
The subject of data set [9] is MDCK-II. The experiment in a line: Apparent permeability from apical to basolateral side of MDCK2 cells over expressing MDR1 at 5 uM after 1 hr in presence of 25 uM LSN335984. In kind it is functional, cell-based. The settings on record: Canis lupus familiaris.
Data set [10] relates to MDCK-II. The experiment in a line: Apparent permeability from basolateral to apical side of MDCK2 cells over expressing MDR1 at 5 uM after 1 hr. In kind it is functional, cell-based. The following applies: Canis lupus familiaris.
Data set [11] can be described thus: Octanol-water partition coefficient, log P after 5 hrs by shake flask method. In kind it is physicochemical.
Data set [12] has as its system MDCK-II. Kind of data set: Enhancement of calcein-AM uptake in MDCK2 cells over expressing MDR1 after 20 mins. In kind it is functional, cell-based. The following applies: Canis lupus familiaris.
Data set [13] has as its target T1, MDR1 (ABCB1, P-glycoprotein). The experiment in a line: Inhibition of MDR1 overexpressed in MDCK cells at 5 uM relative to LSN335984. In kind it is cell-based. The settings on record: dog.
Data set [14] has as its target ATP-dependent translocase ABCB1 (Homo sapiens, UniProt P08183). Described as §1. In kind it is cell-based. The following applies: dog, mdck, 25 µM.
The species named for data set [15] is Mus musculus. The experiment in a line: (§2) Activity of verapamil-dependent ATPase in lipid activated mouse P-glycoprotein mdr3 cys-less mutant.
The nature of data set [16]: as §2.
The species named for data set [17] is Mus musculus. Kind of data set: Activity of verapamil-dependent ATPase in lipid activated cys-less mouse mdr3 P-glycoprotein assessed per ug of protein.
Data set [18] deals with MDCK-II. Kind of data set: Inhibition of [3H]vinblastine transport in MDCK2 cells over expressing MDR1 assessed as [3H]vinblastine accumulation after 2.5 mins. In kind it is functional, cell-based. The settings on record: Canis lupus familiaris.
A short description of data set [19]: Inhibition of [3H]vinblastine transport in human PEAK stable cells over expressing MDR1 assessed as [3H]vinblastine accumulation after 2.5 mins. In kind it is functional, cell-based.
The species entered for data set [20] is Mus musculus. Kind of data set: Inhibition of verapamil-induced specific ATPase activity in lipid activated mouse P-glycoprotein mdr3 cys-less mutant assessed as ATP hydrolysis per ug of protein at 100 uM.
The species entered for data set [21] is Mus musculus. The experiment in a line: Inhibition of verapamil-induced ATPase activity in lipid activated mouse P-glycoprotein mdr3 cys-less mutant assessed as ATP hydrolysis at 100 uM.
Another data set has as its system DNA. Kind of data set: Binding affinity to calf thymus DNA relative to control. In kind it is nucleic-acid assay. The following applies: Bos taurus.
The nature of data set [22]: Binding affinity to P-glycoprotein in presence of Escherichia coli sham lipids.

Sequence of ATP-dependent translocase ABCB1 (P08183 whole entry): as above

Broadly, the inhibition is how much of the control response was suppressed. Higher therefore signals a response far below the control. Usually pIC50 stands for the IC50 on a negative log10 scale, so that one unit is a factor of ten. The term Papp denotes a coefficient for how fast a substance crosses the barrier. In general, logP refers to a log measure of how a compound divides between an organic and an aqueous phase. High values mean higher lipophilicity, low ones lower lipophilicity. As usually defined, the pEC50 is −log10 of the EC50, conventionally taken in molar units. Molecule `CN(C)c1ccc(-c2cc(-c3ccccc3)[s+]c(-c3ccc(N)cc3)c2)cc1.F[P-](F)(F)(F)(F)F` registered an inhibition at 25 µM in data set [1] of 14%. Moreover, the Ratio in the data set with MDCK-II [2] is recorded as 70. For the same molecule, the pIC50 in [3] is 5.28. Further, the Activity in the data set filed under Mus musculus [4] was determined as 0.9 nmol/min. The permeability in the data set with MDCK-II [5] amounted to 20%; with MDCK-II [7] it was 17 ×10⁻⁶ cm/s; with MDCK-II [8], 0.37 ×10⁻⁶ cm/s; in the data set on MDCK-II [9] it was 19%; with MDCK-II [10], 24%. Further, in the data set with MDCK-II [6], the Papp was 0.31 ×10⁻⁶ cm/s. Also, the log partition coefficient (logP) at 5 h in data set [11] turned out to be 0. The pEC50 with MDCK-II [12] is 4.85. The inhibition at 5 µM in [13] stood at 7%.

`CN(C)c1ccc(-c2cc(-c3ccc(N(C)C)cc3)[se+]c(C(C)(C)C)c2)cc1.[I-]` had an inhibition at 25 µM in data set [1] of 67%. Further, the Ratio in the data set on MDCK-II [2] is given as 161. Also, the permeability was determined as 23% in the data set with MDCK-II [5]; 29 ×10⁻⁶ cm/s with MDCK-II [7]; 0.23 ×10⁻⁶ cm/s in the data set with MDCK-II [8]; 37% with MDCK-II [9]; 26% with MDCK-II [10]. The Papp with MDCK-II [6] turned out to be 0.28 ×10⁻⁶ cm/s. The molecule also gave a logP at 5 h in [11] of 1.6. Moreover, in the data set with MDCK-II [12], the pEC50 is 5.17. In [13], this molecule gave an inhibition at 5 µM of 23%.

With `CN(C)c1ccc(-c2cc(-c3ccccc3)[se+]c(-c3ccc(N)cc3)c2)cc1.F[P-](F)(F)(F)(F)F`, 25 µM produced 22% inhibition in data set [1]. The Ratio in the data set on MDCK-II [2] was 57. The permeability amounted to 13% in the data set with MDCK-II [5]; 12 ×10⁻⁶ cm/s in the data set on MDCK-II [7]; 0.35 ×10⁻⁶ cm/s in the data set on MDCK-II [8]; 18% in the data set with MDCK-II [9]; 18% in the data set on MDCK-II [10]. The Papp in the data set on MDCK-II [6] was 0.28 ×10⁻⁶ cm/s. In data set [11], this molecule had a logP at 5 h of 0.8. Also, the pEC50 in the data set on MDCK-II [12] is 4.70. The molecule further came in with an inhibition at 5 µM in data set [13] of 5%.

In general, Km refers to the concentration of substrate that gives half-maximal velocity. A word on the pKi: it is −log10 of the Ki, conventionally taken in molar units. A higher pKi goes with a low Ki. Broadly, the Vmax is the top rate of the reaction or transport when substrate is in excess. For `Cc1cc(C)c(-c2cc(-c3ccc(N(C)C)cc3)[te+]c(-c3ccc(N(C)C)cc3)c2)c(C)c1.F[P-](F)(F)(F)(F)F`, the “inhibition (INH)” value in data set [14] came to 230%. For the same molecule, the Ratio with MDCK-II [2] was determined as 1.4. The pIC50 in data set [3] is 5.92; in the data set on MDCK-II [18], 5.02; in data set [19], 5.37. For the same molecule, in the data set listed under Mus musculus [15], the Km came out at 16 µM. In addition, the pKi in data set [16] was 7.40. The Activity in the data set listed under Mus musculus [4] stood at 0.4 nmol/min; in the data set listed under Mus musculus [20], 0.44 nmol/min. Also, the permeability was found to be 5% in the data set with MDCK-II [5]; 0.42 ×10⁻⁶ cm/s in the data set with MDCK-II [7]; 0.85 ×10⁻⁶ cm/s in the data set on MDCK-II [8]; 7% in the data set with MDCK-II [9]; 3% in the data set on MDCK-II [10]. In addition, in the data set on MDCK-II [6], the Papp is 0.48 ×10⁻⁶ cm/s. The maximal velocity (Vmax) in the data set listed under Mus musculus [17] is 2.67 nmol/min. In addition, the logP at 5 h in data set [11] is 2.4. In addition, in the data set on MDCK-II [12], the pEC50 was 5.27. The molecule further came in with an inhibition at 5 µM in [13] of 32%.

For the molecule `CN(C)c1ccc(-c2cc(-c3ccc(N)cc3)[s+]c(-c3ccc(N(C)C)cc3)c2)cc1.F[P-](F)(F)(F)(F)F`, testing at 25 µM in data set [1] gave an inhibition of 16%. For the same molecule, the Ratio in the data set on MDCK-II [2] is 1.6. In addition, the pIC50 in data set [3] is 6.15. Besides, the Activity in the data set listed under Mus musculus [4] amounted to 1.6 nmol/min; in the data set listed under Mus musculus [20] it was 0.93 nmol/min. In addition, the permeability is 17% in the data set with MDCK-II [5]; 4.2 ×10⁻⁶ cm/s in the data set with MDCK-II [7]; 5.3 ×10⁻⁶ cm/s in the data set on MDCK-II [8]; 16% in the data set with MDCK-II [9]; 19% with MDCK-II [10]. Moreover, the Papp in the data set with MDCK-II [6] was determined as 3.2 ×10⁻⁶ cm/s. The lipophilicity (logP) at 5 h in data set [11] amounted to 2.2. In the data set with MDCK-II [12], the pEC50 is 4.46. The molecule further came in with an inhibition at 5 µM in [13] of 2%.

`CCCc1cc(-c2ccc(N(C)C)cc2)cc(-c2ccc(N(C)C)cc2)[s+]1.[I-]` had an inhibition at 25 µM in data set [1] of 87%. Also, the Ratio in the data set on MDCK-II [2] is reported as 390. Also, the result in the data set filed under Mus musculus [21] was inactive. Also, the pIC50 in [3] is less than 4.00. The Activity in the data set filed under Mus musculus [4] was 2.5 nmol/min; in the data set on DNA, greater than 60; in the data set listed under Mus musculus [20], 1.37 nmol/min. The permeability in the data set with MDCK-II [5] is 11%; in the data set with MDCK-II [7], 37 ×10⁻⁶ cm/s; in the data set with MDCK-II [8], 0.15 ×10⁻⁶ cm/s; in the data set with MDCK-II [9] it was 8%; in the data set with MDCK-II [10], 11%. In addition, in the data set with MDCK-II [6], the Papp turned out to be 2.2 ×10⁻⁶ cm/s. In addition, the Kapp in [22] was determined as 2.2 ×10⁻⁶ M. This molecule also showed a logP at 5 h in [11] of 1.2. Moreover, the pEC50 in the data set with MDCK-II [12] was 5.01. The same molecule registered an inhibition at 5 µM in [13] of 15%.

As for `Cc1cc(-c2ccc(N(C)C)cc2)[s+]c(-c2ccc(N(C)C)cc2)c1`, the pIC50 in data set [3] is 5.24. For the same molecule, in the data set listed under Mus musculus [4], the Activity is 0.9 nmol/min. In data set [11], this molecule came in with a logP at 5 h of 1.2.

With `CN(C)c1ccc(-c2cc(-c3ccc(N(C)C)cc3)[s+]c(C(C)(C)C)c2)cc1.[I-]`, the inhibition at 25 µM in data set [1] stood at 60%. For the same molecule, the Ratio in the data set with MDCK-II [2] is on record as 134. Moreover, the pIC50 in [3] is 6.06. In addition, the Activity was 1.4 nmol/min in the data set listed under Mus musculus [4], greater than 60 with DNA and 0.7 nmol/min in the data set listed under Mus musculus [20]. Besides, the permeability in the data set on MDCK-II [5] was found to be 25%; in the data set on MDCK-II [7], 34 ×10⁻⁶ cm/s; in the data set with MDCK-II [8] it was 0.53 ×10⁻⁶ cm/s; with MDCK-II [9] it was 44%; in the data set on MDCK-II [10], 37%. Moreover, the Papp in the data set with MDCK-II [6] was 0.34 ×10⁻⁶ cm/s. For the same molecule, the Kapp in data set [22] came to 4.7 ×10⁻⁷ M. The logP at 5 h in data set [11] stood at 1.5. For the same molecule, in the data set on MDCK-II [12], the pEC50 is 5.15. Further, the inhibition at 5 µM in data set [13] stood at 25%.

With `Cc1cc(C)c(-c2cc(-c3ccc(N(C)C)cc3)[s+]c(-c3ccc(N(C)C)cc3)c2)c(C)c1`, in [3], the pIC50 is 4.15. The Activity in the data set filed under Mus musculus [4] turned out to be 0 nmol/min; in the data set listed under Mus musculus [20], 0.3 nmol/min. The molecule also had a logP at 5 h in data set [11] of 2.1.
